# Experimental data: patent US20220242812A1, “SWELL1-LRRC8 COMPLEX MODULATORS” (Washington University, priority 2019, published 2022)
# “Also recorded” adds a separate entry of the source.
# What was measured:
# polygenic T2D KKAy mice = assay: Metabolic phenotyping (fasting glucose, GTT, ITT) in polygenic T2D KKAy mice; type: in vivo; conditions: T2D KKAy mice, 5 mg/kg i.p. 4 days, compared to SN071
# From the text: All C57BL/6 mice involved in study were purchased from Charles River Labs. Both KK.Cg-Ay/J (KKN) and KK.Cg-Aa/J (KKAa) mice involved in study were gender and age-matched mice obtained from Jackson Labs (Stock No: 002468) and bred up for experiments. The mice were fed ad libitum with either regular chow (RC) or high-fat diet (Research Diets, Inc., 60 kcal % fat) with free access to water and housed in a light-, temperature- and humidity-controlled room. For high-fat diet (HFD) studies, only male mice were used and were started on HFD regimen at the age of 6-9 weeks. For all experiments involving KKN and KKAa mice, both males and females were used at approximately 50/50 ratio. In all experiments involving mice, investigators were kept blinded both during the experiments and subsequent analysis.
# (§1) All compounds were dissolved in Kolliphor® EL (Sigma, #C5135).
# Mice were fasted for 6 h prior to glucose tolerance tests (GTT). Baseline glucose levels at 0 min timepoint (fasting glucose, FG) were measured from blood sample collected from tail snipping using glucometer (Bayer Healthcare LLC). Either 1 g or 0.75 g D-Glucose/kg body weight were injected (i.p.) for lean or HFD mice, respectively and glucose levels were measured at 7, 15, 30, 60, 90 and 120 min timepoints after injection. For insulin tolerance tests (ITTs), the mice were fasted for 4 h. Similar to GTTs, the baseline blood glucose levels were measured at 0 min timepoint and 15, 30, 60, 90 and 120 min timepoints post-injection (i.p.) of insulin (HumulinR, 1 U/kg body weight for lean mice or 1.25 U/kg body weight for HFD mice). […] The collected plasma was then measured for insulin content by using Ultra-Sensitive Mouse Insulin ELISA Kit (Crystal Chem, #90080). All mice and treatment groups were assessed blindly while performing experiments.
# [1] = tested on: islets, glucose-stimulated insulin secretion; assay: Islet perifusion GSIS assay, islets from treated T2D mice; type: in vivo; conditions: islets of T2D KKAy mice, compared to SN071
# Description: For patch-clamp studies involving primary mouse cells, the mice were anesthesized by injecting Avertin (0.0125 g/ml in H2O) followed by cervical dislocation. […] Perifusion buffer contained (in mM): 120 NaCl, 24 NaHCO3, 4.8 KCl, 2.5 CaCl, 1.2 MgSO4, 10 HEPES, 2.8 glucose, 27.2 mannitol, 0.25% w/v bovine serum albumin, pH 7.4 with NaOH (300 mOsm/kg). Perifusion buffer kept at 37° C. was circulated at 120 μI/min After 48 min of washing with 2.8 mM glucose solution for stabilization, islets were stimulated with the following sequence: 16 min of 16.7 mM glucose, 40 min of 2.8 mM glucose, 10 min of 30 mM KCl, and 12 min of 2.8 mM glucose. Osmolarity was matched by adjusting mannitol concentration when preparing solution containing 16.7 mM glucose. Serial samples were collected either every 1 or 2 min into 96 wells kept at 4° C. Insulin concentrations were further determined using commercially available ELISA kit (Mercodia). The area under the curve (AUC) for the high-glucose induced insulin release was calculated for time points between 50 to 74/84 min. At the completion of the experiments, islets were further lysed by addition of RIPA buffer and the amount of insulin was detected by ELISA.
# [2] = target: T1, SWELL1-LRRC8 channel (ICl,SWELL) in HEK-293 cells (Homo sapiens, UniProt Q8IWT6); assay: ICl,SWELL inhibition after hypotonic activation, patch-clamp in HEK-293 cells; type: cell-based; conditions: HEK-293 cells, hypotonic (210 mOsm), 10 and 7 μM, relative to SN-401
# T1 construct: endogenous in cells; host or cells: HEK-293 (ATCC CRL-1573)
# Description: Mean presented±SEM. Two-tailed unpaired t-test was used. *, **, and *** represents p<0.05, p<0.01 and p<0.001, respectively.
# (§2) Patch-clamp recordings of β-cells and mature adipocytes were performed as described previously (Kang et al., 2018; Zhang et al., 2017). 3T3-F442A WT and KO preadipocytes were prepared as described in the Cell culture section above. For SWELL1 overexpression recordings, preadipocytes were first transduced with Ad5-CAG-LoxP-stop-LoxP-3×Flag-SWELL1 (MOI 12) in 2% FBS culture medium for two days and then overexpression induced by adding Ad5-CMV-Cre-wt-lRES-eGFP (MOI 10-12) in 2% FBS culture medium for two more days and changed to 10% FBS containing culture media and were selected based on GFP expression (˜2-3 days). For cell recordings, islets were transduced with Ad-RIP2-GFP and then dispersed after 48-72 hours for patch-clamp experiments. GFP+ cells marked β-cells selected for patch-clamp recordings. […] Recordings were measured using […] amplifier paired to a Digidata 1550 digitizer using pClamp 10.4 software. The extracellular buffer composition for hypotonic stimulation contains 90 mM NaCl, 2 mM CsCl, 1 mM MgCl, 1 mM CaCb, 10 mM HEPES, 10 mM Mannitol, pH 7.4 with NaOH (210 mOsm/kg). The extracellular isotonic buffer composition is same as above except for Mannitol concentration of 110 mM (300 mOsm/kg). The composition of intracellular buffer is 120 mM L-aspartic acid, 20 mM CsCl, 1 mM MgCl, 5 mM EGTA, 10 mM HEPES, 5 mM MgATP, 120 mM CsOH, 0.1 mM GTP, pH 7.2 with CsOH. All recordings were carried out at room temperature (RT) with HEK-293 cells, β-cells and 3T3-F442A cells performed in whole-cell configuration and human adipocytes in perforated-patch configuration, as previously described (Kang et al., 2018; Zhang et al., 2017).
# [3] = target: ICl,SWELL (SWELL1 channel) (Homo sapiens, UniProt Q8IWT6); assay: Patch-clamp screening of Smod compounds for ICl,SWELL inhibitory activity; type: cell-based; conditions: preliminary patch-clamp experiments, in words
# From the text: FIG. 2. Patch-clamp screening of Smod compounds for ICL,SWELL inhibitory activity.
# FIG. 3. Patch-clamp screening of Smod compounds for ICL,SWELL inhibitory activity.
# A series of compounds (Smod compounds) were synthesized to evaluate the role of a butyrate side chain and aryl substituents on activity (see FIG. 1 and Table 1 below). In preliminary patch-clamp experiments to screen for compounds that preserve or enhance SWELL1 modulatory activity, unique structural derivatives were identified with ICl,SWELL inhibitory activity (Smod 2-6, FIGS. 2, 3, and 12-16, as well as Table 1 below). […] In vitro channel inhibitory activity was also maintained with Smod3-5 (FIG. 3). Note that compounds were also identified that lack activity, and therefore are not SWELL1 modulators (i.e., Snot1, FIGS. 2A and 3A). FIG. 4 summarizes three dose response curves of isolated enantiomers of Smod1 (+ and −) compared to Smod3. […] FIG. 5 summarizes the synthetic scheme used to generate these compounds.
# HFD T2D mice = assay: Glucose tolerance and fasting glucose in HFD T2D mice (Smod compounds, Example 2); type: in vivo
# Description: FIG. 7. Representative glucose tolerance test data, area under curve (AUC) and fasting glucose for mice treated with a vehicle, and 5 mg/kg/day Smod3 or Snot1 for 5 days. Smod3, but not Snot1 improves glucose tolerance (as measured by are under the curve, AUC), and fasting glucose in HFD T2D mice. N=5 mice in each group. *p<0.05, ** p<0.01, *** p<0.001.
# FIG. 8. Glucose Tolerance of obese T2D mice (16 weeks HFD): Pre-Smod6 (black circles), after Smod6 (5 mg/kg i.p.×5 days, pink triangles), 4 weeks after i.p. vehicle injection (blue diamonds), and 4 weeks after discontinuing Smod6 (maroon squares).
# FIG. 9. Glucose Tolerance of obese T2D mice (16 weeks HFD): 4 weeks after i.p. vehicle injection (black circles), 4 weeks after Snot1 (5 mg/kg i.p.×5 days, blue squares), and 4 weeks after Smod6 (5 mg/kg i.p.×5 days, maroon triangles).
# Moreover, Smod3, and not Snot1 (5 mg/kg i.p.×[…]) improve glucose tolerance (GTT, Area under the curve) and fasting glucose (FG) in mice raised on HFD for 8 weeks in pilot studies (FIG. 7).
# HFD-induced T2D mice = assay: Metabolic phenotyping (fasting glucose, GTT, ITT) in HFD-fed T2D mice; type: in vivo; conditions: HFD 8 weeks, 5 mg/kg/day x 4 days, compared to SN071
# Description: as §1
# Mice were fasted for 6 h prior to glucose tolerance tests (GTT). Baseline glucose levels at 0 min timepoint (fasting glucose, FG) were measured from blood sample collected from tail snipping using glucometer (Bayer Healthcare LLC). Either 1 g or 0.75 g D-Glucose/kg body weight were injected (i.p.) for lean or HFD mice, respectively and glucose levels were measured at 7, 15, 30, 60, 90 and 120 min timepoints after injection. For insulin tolerance tests (ITTs), the mice were fasted for 4 h. […] All mice and treatment groups were assessed blindly while performing experiments.
# [4] = target: T2, closed SWELL1-LRRC8 channel in HEK-293 cells (Homo sapiens, UniProt Q8IWT6); assay: ICl,SWELL inhibition on application to the closed SWELL1-LRRC8 channel (30 min preincubation), HEK-293 cells; type: cell-based; conditions: 1 μM, 30 minutes prior to hypotonic activation
# T2 construct: endogenous in cells; host or cells: HEK-293 (ATCC CRL-1573)
# Description: as §2
# SWELL1 protein [5] = target: T3, SWELL1 protein (Mus musculus, UniProt Q80WG5); conditions: 3T3-F442A adipocytes, 1 and 10 μM, 4 days
# SWELL1 protein [6] = target: T3, SWELL1 protein; assay: Glucolipotoxic stress (palmitate + glucose) SWELL1 protein in 3T3-F442A adipocytes; conditions: 10 μM 96 h, 1 mM palmitate + 25 mM glucose
# [7] = mice on HFD 8 weeks, 5 mg/kg i.p. x 4 days (FIG. 7 legend: 5 days), listed as Smod3, 5 mg/kg
compound,measurement,setting,value
"CCCCC1(C2CCCC2)Cc2cc(OCCCCCCC(=O)O)c(Cl)c(Cl)c2C1=O (centres unmarked) [SN-407, 7-((2-butyl-6,7-dichloro-2-cyclopentyl-1-oxo-2,3-dihydro-1H-inden-5-yl)oxy)heptanoic acid]",Glucose tolerance based on the GTT AUC,polygenic T2D KKAy mice,improved
same,GSIS,[1],increased
same,"On-target inhibition of ICl,SWELL",[2],maintained or enhanced; also recorded: increase
CCCCC1(C2CCCC2)Cc2cc(OCC(=O)O)c(Cl)c(Cl)c2C1=O (centres unmarked) [UICK-IV-101a],"ICl,SWELL inhibitory activity",[3]; listed as Snot1,"lack activity; also recorded: lacking ICl,SWELL inhibitory activity"
same,"Glucose tolerance (GTT, area under the curve)","HFD T2D mice; mice on HFD 8 weeks, 5 mg/kg i.p. x 4 days (FIG. 7 legend: 5 days)",not
CCCCC1(C2CCCC2)Cc2cc(OCCCCCC(=O)O)c(Cl)c(Cl)c2C1=O (racemic) [UIPC-III-045B],Glucose tolerance 4 weeks after discontinuing treatment,"HFD T2D mice; T2D HFD fed mice, 5 mg/kg i.p. x 5 days, after 20 weeks HFD",sustain improved glucose tolerance
"CCCCC1(C2CCCC2)Cc2cc(OCCCCC(=O)O)c(Cl)c(Cl)c2C1=O (centres unmarked) [SN-403, 5-((2-butyl-6,7-dichloro-2-cyclopentyl-1-oxo-2,3-dihydro-1H-inden-5-yl)oxy)pentanoic acid]",Fasting blood glucose,HFD-induced T2D mice,significantly reduced
same,Glucose tolerance,HFD-induced T2D mice,improved
same,"On-target inhibition of ICl,SWELL",[2],maintained or enhanced
"CCCCC1(C2CCCC2)Cc2cc(OCC(=O)O)c(Cl)c(Cl)c2C1=O (centres unmarked) [SN071, 2-((2-butyl-6,7-dichloro-2-cyclopentyl-1-oxo-2,3-dihydro-1H-inden-5-yl)oxy)acetic acid]",Subsequent hypotonic SWELL1-LRRC8 activation,[4],inactive
same,"On-target inhibition of ICl,SWELL",[2],"eliminate ICl,SWELL inhibitory activity"
same,"On-target inhibition of ICl,SWELL",[2]; listed as S1\1071,entirely eliminated
same,SWELL1 protein level relative to vehicle-treated controls,SWELL1 protein [5],do not significantly increase
CCCCC1(C2CCCC2)Cc2cc(OC/C=C/C(=O)O)c(Cl)c(Cl)c2C1=O (racemic) [UIPC-II-179],"ICl,SWELL inhibitory activity",[3],maintaining activity
"O=C(O)CCCOc1cc2c(c(Cl)c1Cl)C(=O)C(C1CCCC1)C2 (centres unmarked) [UIPC-III-083B, 4-((6,7-dichloro-2-cyclopentyl-1-oxo-2,3-dihydro-1H-inden-5-yl)oxy)butanoic acid]",Subsequent hypotonic SWELL1-LRRC8 activation,[4],inactive
same,"On-target inhibition of ICl,SWELL",[2]; listed as SN072,"entirely eliminated; also recorded: eliminate ICl,SWELL inhibitory activity"
same,SWELL1 protein level relative to vehicle-treated controls,SWELL1 protein [5],do not significantly increase
same,Prevention of palmitate/glucose-induced SWELL1 protein reduction,SWELL1 protein [6],not
CCCCC1(C2CCCC2)Cc2cc(OCCCC(=O)O)c(C)c(C)c2C1=O (racemic) [UIPC-II-187B],"ICl,SWELL inhibitory activity",[3]; listed as Smod5,did not significantly alter activity; also recorded: maintaining activity
CCCCC1(C2CCCC2)Cc2cc(OCCCN(C)C)c(Cl)c(Cl)c2C1=O.Cl (racemic) [UICK-IV-105b],"ICl,SWELL inhibitory activity",[3]; listed as Smod2,active; also recorded: maintaining activity
CCCCC1(C2CCCC2)Cc2cc(OCCCCC(=O)O)c(Cl)c(Cl)c2C1=O (racemic) [UICK-IV-119],"ICl,SWELL inhibitory activity",[3]; listed as Smod3,maintaining and augmenting activity
same,Fasting glucose (FG),HFD T2D mice; [7],improves
same,"Glucose tolerance (GTT, area under the curve)",HFD T2D mice; [7],improves
